Results as given in paper PMC4532999 (Scientific Reports, 2015).
Positions of bridges follow the written chain, without caps; N, C: chain ends. Non-standard residues stand in square brackets, D forms with d. Residues, ends and D or L forms follow the SMILES beside them. No end group written: not given here. pY = N[C@@H](Cc1ccc(OP(=O)(O)O)cc1)C(=O)O

Legend:
Abl kinase = Abl kinase (Homo sapiens, UniProt P00519); assay: BacKin assay, inhibition of phosphorylation of abltide displayed on E. coli; type: biochemical; settings: 32 μM peptide, Abl kinase 0.2 U/mL, 37 °C, 30 min
HeLa cells = system: HeLa cells
Method: Since BCR-ABL localizes predominantly in the cytoplasm, it is important to evaluate whether the designed peptides can be internalized into cells.
Human cervical cancer cells (HeLa) were seeded in 175-cm^2 tissue culture flasks (Falcon), in Dulbecco’s Modified Eagle’s Medium (DMEM) supplemented with 10% fetal bovine serum, 100 U/mL penicillin and […] streptomycin, until 80% confluent.
Cytotoxicity of the MTAbl peptides towards HeLa cells was evaluated before the cell internalization assay. The mammalian cell cytotoxicity assay was conducted using a method described earlier. HeLa cells were seeded the day before the assay in 96-well tissue culture-treated plates (2.5 × 10^3 cells/well). […] Peptide solutions were diluted 10-fold with serum-free medium and incubated with cells in triplicates for 2 h. […] Following incubation the peptide solutions were removed and aliquots of 10 μL of 0.02% (w/v) sterile resazurin (resazurin sodium salt, Sigma) were added to each well containing 100 μL of fresh medium. […] The absorbance of the plates was measured on a plate reader at 540 and 620 nm.

Serum stability assay = settings: 100% human serum, 37 °C
Method: All peptides were tested at a final concentration of 30 μM in 100% human serum. […] Reactions were stopped at the stipulated times and the serum proteins in each sample were denatured and precipitated, followed by centrifugation at 17,000 g for 10 min to separate the serum proteins from peptide samples. […] The elution time for each peptide was determined by the PBS control from 0 time point. The percentage of peptide remaining at each time point was calculated using the height of the serum-treated peptide peak from time 0 as 100% recovery.

Abl kinase, sequence (P00519 whole entry): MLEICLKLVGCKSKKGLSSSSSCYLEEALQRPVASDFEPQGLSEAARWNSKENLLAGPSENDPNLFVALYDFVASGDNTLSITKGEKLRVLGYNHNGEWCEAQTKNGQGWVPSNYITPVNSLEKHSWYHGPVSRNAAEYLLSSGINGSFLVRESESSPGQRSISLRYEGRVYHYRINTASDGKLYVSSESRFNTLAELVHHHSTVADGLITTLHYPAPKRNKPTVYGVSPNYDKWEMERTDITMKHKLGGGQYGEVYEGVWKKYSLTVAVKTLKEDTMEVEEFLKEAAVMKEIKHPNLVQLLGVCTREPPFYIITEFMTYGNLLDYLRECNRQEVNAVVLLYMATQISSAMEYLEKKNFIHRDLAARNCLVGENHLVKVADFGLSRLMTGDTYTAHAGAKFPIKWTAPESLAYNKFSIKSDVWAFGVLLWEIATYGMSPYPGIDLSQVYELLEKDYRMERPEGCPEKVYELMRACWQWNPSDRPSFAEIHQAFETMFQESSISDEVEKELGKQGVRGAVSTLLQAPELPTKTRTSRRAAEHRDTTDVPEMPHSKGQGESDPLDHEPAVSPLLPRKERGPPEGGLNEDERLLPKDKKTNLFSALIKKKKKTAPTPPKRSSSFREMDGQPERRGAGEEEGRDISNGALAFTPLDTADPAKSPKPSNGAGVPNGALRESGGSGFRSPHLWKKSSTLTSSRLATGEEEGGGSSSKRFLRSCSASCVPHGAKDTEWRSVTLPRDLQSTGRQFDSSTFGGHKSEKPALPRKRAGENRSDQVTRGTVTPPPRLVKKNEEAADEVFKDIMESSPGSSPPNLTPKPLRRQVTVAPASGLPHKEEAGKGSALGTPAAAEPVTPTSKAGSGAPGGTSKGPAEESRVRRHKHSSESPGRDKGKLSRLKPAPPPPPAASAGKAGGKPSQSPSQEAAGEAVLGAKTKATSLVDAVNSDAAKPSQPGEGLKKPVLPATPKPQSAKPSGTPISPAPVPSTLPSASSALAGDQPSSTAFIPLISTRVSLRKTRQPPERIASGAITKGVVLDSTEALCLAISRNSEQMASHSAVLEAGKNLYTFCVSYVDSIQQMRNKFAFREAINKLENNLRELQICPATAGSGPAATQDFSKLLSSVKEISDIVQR

Row | Compound | percentage of Abl kinase inhibition (Abl kinase) | also measured
1 | CC[C@H](C)[C@@H]1NC(=O)[C@H](C)NC(=O)[C@H](CCC(=O)O)NC(=O)CNC(=O)[C@@H]2CSSC[C@@H]3NC(=O)[C@H](CC(=O)O)NC(=O)[C@H](CO)NC(=O)[C@H](CC(=O)O)NC(=O)[C@H](CCCNC(=N)N)NC(=O)[C@H](CCCNC(=N)N)NC(=O)[C@@H]4CSSC[C@H](NC(=O)[C@H]([C@@H](C)CC)NC(=O)[C@H](CSSC[C@H](NC(=O)[C@H](CCCCN)NC(=O)[C@H](C)NC(=O)[C@H](Cc5ccccc5)NC(=O)[C@@H]5CCCN5C(=O)[C@H](C)NC(=O)[C@H](C)NC(=O)[C@H](Cc5ccc(O)cc5)NC1=O)C(=O)N1CCC[C@H]1C(=O)N[C@@H](CCCCN)C(=O)N[C@@H]([C@@H](C)CC)C(=O)N[C@@H](CC(C)C)C(=O)N[C@@H](CCCCN)C(=O)N[C@@H](CCCCN)C(=O)N4)NC(=O)[C@H](C)NC(=O)CNC(=O)[C@@H]1CCCN1C3=O)C(=O)N[C@@H](CCCNC(=N)N)C(=O)NCC(=O)N[C@@H](CC(N)=O)C(=O)NCC(=O)N[C@@H](Cc1ccc(O)cc1)C(=O)N2 [MTAbl05] (cyclo(AAPFAKCPKILKKCRRDSDCPGACICRGNGYCGEAIY); disulfide 7-24, 14-26, 20-32) | ~ 90% | 
2 | CC[C@H](C)[C@@H]1NC(=O)[C@H](C)NC(=O)[C@H](CCC(=O)O)NC(=O)CNC(=O)[C@@H]2CSSC[C@@H]3NC(=O)[C@H](CC(=O)O)NC(=O)[C@H](CO)NC(=O)[C@H](CC(=O)O)NC(=O)[C@H](CCCNC(=N)N)NC(=O)[C@H](CCCNC(=N)N)NC(=O)[C@@H]4CSSC[C@H](NC(=O)[C@H]([C@@H](C)CC)NC(=O)[C@H](CSSC[C@H](NC(=O)CNC(=O)[C@H](C)NC(=O)[C@H](Cc5ccccc5)NC(=O)[C@@H]5CCCN5C(=O)[C@H](C)NC(=O)[C@H](C)NC(=O)[C@H](Cc5ccc(O)cc5)NC1=O)C(=O)N1CCC[C@H]1C(=O)N[C@@H](CCCCN)C(=O)N[C@@H]([C@@H](C)CC)C(=O)N[C@@H](CC(C)C)C(=O)N[C@@H](CCCCN)C(=O)N[C@@H](CCCCN)C(=O)N4)NC(=O)[C@H](C)NC(=O)CNC(=O)[C@@H]1CCCN1C3=O)C(=O)N[C@@H](CCCNC(=N)N)C(=O)NCC(=O)N[C@@H](CC(N)=O)C(=O)NCC(=O)N[C@@H](Cc1ccc(O)cc1)C(=O)N2 [MTAbl02] (cyclo(AAPFAGCPKILKKCRRDSDCPGACICRGNGYCGEAIY); disulfide 7-24, 14-26, 20-32) | 90% | 
3 | CC[C@H](C)[C@@H]1NC(=O)[C@H](C)NC(=O)[C@H](CCC(=O)O)NC(=O)[C@@H]2CSSC[C@@H]3NC(=O)[C@H](CC(=O)O)NC(=O)[C@H](CO)NC(=O)[C@H](CC(=O)O)NC(=O)[C@H](CCCNC(=N)N)NC(=O)[C@H](CCCNC(=N)N)NC(=O)[C@@H]4CSSC[C@H](NC(=O)[C@H]([C@@H](C)CC)NC(=O)[C@H](CSSC[C@H](NC(=O)[C@H](CCCCN)NC(=O)[C@H](C)NC(=O)[C@H](Cc5ccccc5)NC(=O)[C@@H]5CCCN5C(=O)[C@H](C)NC(=O)[C@H](C)NC(=O)[C@H](Cc5ccc(O)cc5)NC1=O)C(=O)N1CCC[C@H]1C(=O)N[C@@H](CCCCN)C(=O)N[C@@H]([C@@H](C)CC)C(=O)N[C@@H](CC(C)C)C(=O)N[C@@H](CCCCN)C(=O)N[C@@H](CCCCN)C(=O)N4)NC(=O)[C@H](C)NC(=O)CNC(=O)[C@@H]1CCCN1C3=O)C(=O)N[C@@H](CCCNC(=N)N)C(=O)NCC(=O)N[C@@H](CC(N)=O)C(=O)NCC(=O)N[C@@H](Cc1ccc(O)cc1)C(=O)N2 [MTAbl04] (cyclo(AAPFAKCPKILKKCRRDSDCPGACICRGNGYCEAIY); disulfide 7-24, 14-26, 20-32) | ~ 50% | 
4 | CC[C@H](C)[C@@H]1NC(=O)[C@H](C)NC(=O)[C@H](CCC(=O)O)NC(=O)[C@@H]2CSSC[C@@H]3NC(=O)[C@H](CC(=O)O)NC(=O)[C@H](CO)NC(=O)[C@H](CC(=O)O)NC(=O)[C@H](CCCNC(=N)N)NC(=O)[C@H](CCCNC(=N)N)NC(=O)[C@@H]4CSSC[C@H](NC(=O)[C@H]([C@@H](C)CC)NC(=O)[C@H](CSSC[C@H](NC(=O)CNC(=O)[C@H](C)NC(=O)[C@H](Cc5ccccc5)NC(=O)[C@@H]5CCCN5C(=O)[C@H](C)NC(=O)[C@H](C)NC(=O)[C@H](Cc5ccc(O)cc5)NC1=O)C(=O)N1CCC[C@H]1C(=O)N[C@@H](CCCCN)C(=O)N[C@@H]([C@@H](C)CC)C(=O)N[C@@H](CC(C)C)C(=O)N[C@@H](CCCCN)C(=O)N[C@@H](CCCCN)C(=O)N4)NC(=O)[C@H](C)NC(=O)CNC(=O)[C@@H]1CCCN1C3=O)C(=O)N[C@@H](CCCNC(=N)N)C(=O)NCC(=O)N[C@@H](CC(N)=O)C(=O)NCC(=O)N[C@@H](Cc1ccc(O)cc1)C(=O)N2 [MTAbl03] (cyclo(AAPFAGCPKILKKCRRDSDCPGACICRGNGYCEAIY); disulfide 7-24, 14-26, 20-32) | 50% | 
5 | CC[C@H](C)[C@@H]1NC(=O)[C@H](C)NC(=O)[C@H](CCC(=O)O)NC(=O)CNC(=O)[C@@H]2CSSC[C@@H]3NC(=O)[C@H](CC(=O)O)NC(=O)[C@H](CO)NC(=O)[C@H](CC(=O)O)NC(=O)[C@H](CCCNC(=N)N)NC(=O)[C@H](CCCNC(=N)N)NC(=O)[C@@H]4CSSC[C@H](NC(=O)[C@H]([C@@H](C)CC)NC(=O)[C@H](CSSC[C@H](NC(=O)[C@H](CCCNC(=N)N)NC(=O)[C@H](CCCNC(=N)N)NC(=O)[C@H](CCCNC(=N)N)NC(=O)[C@H](C)NC(=O)[C@H](Cc5ccccc5)NC(=O)[C@@H]5CCCN5C(=O)[C@H](C)NC(=O)[C@H](C)NC(=O)[C@H](Cc5ccc(O)cc5)NC1=O)C(=O)N1CCC[C@H]1C(=O)N[C@@H](CCCNC(=N)N)C(=O)N[C@@H]([C@@H](C)CC)C(=O)N[C@@H](CC(C)C)C(=O)N[C@@H](CCCNC(=N)N)C(=O)N[C@@H](CCCCN)C(=O)N4)NC(=O)[C@H](C)NC(=O)CNC(=O)[C@@H]1CCCN1C3=O)C(=O)N[C@@H](CCCNC(=N)N)C(=O)NCC(=O)N[C@@H](CC(N)=O)C(=O)NCC(=O)N[C@@H](Cc1ccc(O)cc1)C(=O)N2 [MTAbl15] (cyclo(AAPFARRRCPRILRKCRRDSDCPGACICRGNGYCGEAIY); disulfide 9-26, 16-28, 22-34) |  | concentration up to which no cytotoxicity towards HeLa cells (HeLa cells): > 64 µM
6 | EAIYAAPFAKKK [abltide, reference compound] |  | time to complete degradation in human serum (Serum stability assay; 30 μM peptide, RP-HPLC): ≤ 1 h
7 | CC[C@H](C)[C@@H]1NC(=O)[C@H](C)NC(=O)[C@H](CCC(=O)O)NC(=O)CNC(=O)[C@@H]2CSSC[C@@H]3NC(=O)[C@H](CC(=O)O)NC(=O)[C@H](CO)NC(=O)[C@H](CC(=O)O)NC(=O)[C@H](CCCNC(=N)N)NC(=O)[C@H](CCCNC(=N)N)NC(=O)[C@@H]4CSSC[C@H](NC(=O)[C@H]([C@@H](C)CC)NC(=O)[C@H](CSSC[C@H](NC(=O)[C@H](CCCNC(=N)N)NC(=O)[C@H](C)NC(=O)[C@H](Cc5ccccc5)NC(=O)[C@@H]5CCCN5C(=O)[C@H](C)NC(=O)[C@H](C)NC(=O)[C@H](Cc5ccc(OP(=O)(O)O)cc5)NC1=O)C(=O)N1CCC[C@H]1C(=O)N[C@@H](CCCCN)C(=O)N[C@@H]([C@@H](C)CC)C(=O)N[C@@H](CC(C)C)C(=O)N[C@@H](CCCCN)C(=O)N[C@@H](CCCCN)C(=O)N4)NC(=O)[C@H](C)NC(=O)CNC(=O)[C@@H]1CCCN1C3=O)C(=O)N[C@@H](CCCNC(=N)N)C(=O)NCC(=O)N[C@@H](CC(N)=O)C(=O)NCC(=O)N[C@@H](Cc1ccc(O)cc1)C(=O)N2 [MTAbl12] (cyclo(AAPFARCPKILKKCRRDSDCPGACICRGNGYCGEAI[pY]); disulfide 7-24, 14-26, 20-32) |  | stability in human serum (in words; comparison to MCoTI-II at 24 h) (Serum stability assay; 24 h, one-way ANOVA, three replicates): lower stability
8 | CC[C@H](C)[C@@H]1NC(=O)[C@H](C)NC(=O)[C@H](CCC(=O)O)NC(=O)CNC(=O)[C@@H]2CSSC[C@@H]3NC(=O)[C@H](CC(=O)O)NC(=O)[C@H](CO)NC(=O)[C@H](CC(=O)O)NC(=O)[C@H](CCCNC(=N)N)NC(=O)[C@H](CCCNC(=N)N)NC(=O)[C@@H]4CSSC[C@H](NC(=O)[C@H]([C@@H](C)CC)NC(=O)[C@H](CSSC[C@H](NC(=O)[C@H](C)NC(=O)[C@H](Cc5ccccc5)NC(=O)[C@@H]5CCCN5C(=O)[C@H](C)NC(=O)[C@H](C)NC(=O)[C@H](Cc5ccc(O)cc5)NC1=O)C(=O)N1CCC[C@H]1C(=O)N[C@@H](CCCCN)C(=O)N[C@@H]([C@@H](C)CC)C(=O)N[C@@H](CC(C)C)C(=O)N[C@@H](CCCCN)C(=O)N[C@@H](CCCCN)C(=O)N4)NC(=O)[C@H](C)NC(=O)CNC(=O)[C@@H]1CCCN1C3=O)C(=O)N[C@@H](CCCNC(=N)N)C(=O)NCC(=O)N[C@@H](CC(N)=O)C(=O)NCC(=O)N[C@@H](Cc1ccc(O)cc1)C(=O)N2 [MTAbl01] (cyclo(AAPFACPKILKKCRRDSDCPGACICRGNGYCGEAIY); disulfide 6-23, 13-25, 19-31) | 75% | 
